Results as given in patent US20220323402A1, “TREATMENT, AMELIORATION OR PREVENTION OF A VIRAL INFECTION” (priority 2019, published 2022).

Tests used:
[1] = test system: ZIKV (Puerto Rico strain, PRVABC59); assay: Flow cytometry quantification of HepG2 cells positive for Flavivirus antigen after ZIKV infection; type: cell-based, Zika virus; conditions: HepG2, ZIKV PRVABC59 moi=1, 48 h, pre-treated; FIG. 7C
Experimental: FIGS. 7A-7K: AHR signaling boosts ZIKV replication in vitro. Flow cytometry quantification of HepG2 cells positive for Flavivirus antigen. HepG2 cells were pre-treated with different concentrations of I3S, CH223191 or DMSO (vehicle) and infected with ZIKV (moi=1) for 48 h. Plots shown are representative of one experiment. Bar graphs (FIG. 7C) represent the mean+s.e.m. of Flavivirus antigen positive cells from at least three independent experiments. P values were determined by a one-way ANOVA followed by Tukey's post-hoc test.
Stock solutions of I3S and CH223191 were prepared in DMSO, aliquoted and stored according to manufacturer's instructions. For CH223191, cells were pre-treated for 90 minutes and then used for further studies. For I3S, cells were pre-treated overnight.
Cells were fixed and permeabilized using Cytofix/Cytoperm (BD Biosciences). Secondary antibody for flow cytometry was phycoerythrin (PE) goat anti-mouse IgG (BD Biosciences) at a concentration of 1:200. Cells were analyzed on a Guava easyCyte flow cytometer and data was processed using FlowJo software.

ZIKV = assay: Infectious virus particles in supernatants of ZIKV-infected human NPC cells, plaque assay; type: cell-based, Zika virus; conditions: FIG. 13
Experimental: FIG. 13: Quantification of infectious virus particles in the supernatants of human NPC cells pre-treated with CH2213191 or vehicle-treated using a standard plaque assay in Vero cells. Data represent the mean+s.e.m. from three independent experiments. P values were determined by a one-way ANOVA followed by Tukey's post-hoc test.
HepG2 (ATCC, HB-8065), A549 (ATCC® CCL-185™), HeLa (ATCC, CCL-2) and Vero cells (African green monkey kidney) (ATCC, CCL-81) were grown in Dulbecco's Modified Eagle's medium (DMEM, GIBCO) supplemented with 10% fetal bovine serum, 100 IU/ml of penicillin and 100 ug/ml of streptomycin. HEK-293 cells (ATCC, CRL-1573) and SUM149 cells (Asterand Bioscience, Detroit, Mich.) were grown in DMEM/F12 (GIBCO) supplemented with 10% fetal bovine serum, 100 IU/ml of penicillin and 100 ug/ml of streptomycin. C6/36 mosquito cells from Aedes albopictus were used to generate viral stocks, and were cultured in L-15 medium (Leibovitz) (GIBCO) supplemented with 0.3% tryptose phosphate broth, 0.02% glutamine, 1% MEM non-essential amino acids solution and 10% fetal bovine serum. Human NPCs (Stem Cell Technologies, Catalog #70901) were grown using neural progenitor medium 2 (Stem Cell Technologies). […]

With `Cc1ccccc1/N=N/c1ccc(NC(=O)c2ccnn2C)c(C)c1` [CH223191, 2-Methyl-2H-pyrazole-3-carboxylic Acid (2-methyl-4-o-tolylazo-phenyl)-amide] the “reduction of ZIKV replication, HepG2 cells expressing viral antigen” value [1] was “more than 50%” and the “ZIKV replication in NPCs cultures” value (ZIKV) was “decreased”.
